Results taken from PMC5107956 (2016).

Experiments:
Assay in all cases: fluorescent intercalator displacement (thiazole orange)
Conditions in all cases: 50 mM KCl, 10 mM potassium cacodylate (60 mM K+); pH 7.4, room temperature; thiazole orange 0.625 μM displaced; DNA 0.25 μM; DMSO stocks
[1] = system: c-Kit (c-Kit21) (DNA, G4) CGGGCGGGCGCGAGGGAGGGG
[2] = system: HIF1α (HIF1) (DNA, G4) CGGGGAGGGGAGAGGGGGCGGGA
[3] = system: HTelo (DNA, G4) AGGGTTAGGGTTAGGGTTAGGG
[4] = system: hTERT (DNA, G4) GGGGAGGGGCTGGGAGGGCCC
[5] = system: ds26 (DNA, duplex) CAATCGGATCGAATTCGATCCGATTG
[6] = system: c-Myc (DNA, G4) GGGAGGGTGGGGAGGGTGGG
[7] = system: KRAS m(1:9:1) (DNA, G4) GGGAGGGAAGGAGGGAGGGAGGG
[8] = system: KRAS m(1:5:1) (DNA, G4) GGGAGGGAAGGAGGGAGGG
[9] = system: VEGF (VEGF22) (DNA, G4) CGGGGCGGGCCGGGGGCGGGGT

DC50 [1]: 3.58 (0.28) μM
DC50 [2]: 10.20 (0.54) μM
DC50 [3]: 1.01 (0.03) μM
DC50 [4]: 10.51 (0.61) μM
DC50 [5]: 9.91 (0.55) μM
DC50 [6]: 7.15 (0.17) μM
DC50 [7]: 2.35 (0.09) μM
DC50 [8]: 2.28 (0.10) μM
DC50 [9]: 11.58 (0.41) μM
SMILES: O=C(N/N=C/c1ccc(O)cc1[O-])N(Cc1ccccc1)Cc1ccccc1.[Cu+2].c1ccncc1
